Reference: US20260200919A1, “SUBSTITUTED AMINOPYRIDINE COMPOUNDS AND METHODS OF TREATING DISEASE USING SAME” (Atavistik Bio, Inc., priority 2023, published 2026)

How the values were obtained:
[1] = target: T1, human recombinant kinase full-length AKT1 E17K (Homo sapiens, UniProt P31749, E17K); assay: AKT1 E17K kinase assay (TR-FRET, Lance); assay type: biochemical; conditions: 0.6 nM AKT1 E17K, 50 nM Ulight-CREBtide, either 50 μM ATP or 2 mM ATP (not specified which), 60 min at RT
T1 construct: Purified human recombinant kinase full-length AKT1 E17K was expressed in insect cells; made in house; host or cells: insect cells
Procedure, shortened: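 Full-length human AKT1 E17K (insect cell-expressed, PDPK1-activated; 0.6 nM) with 50 nM ULight-CREBtide in HEPES pH 7.5 with MgCl2 and DTT. ATP at 50 μM or 2 mM, 1% DMSO, 10-point dose response, 60 min at RT.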

[2] = target: T2, human recombinant kinase full-length wildtype AKT1 (Homo sapiens, UniProt P31749); assay: AKT1 kinase assay (wildtype, TR-FRET, Lance); assay type: biochemical; conditions: 0.6 nM wildtype AKT1, 50 nM Ulight-CREBtide, either 50 μM ATP or 2 mM ATP (not specified which), 60 min at RT
T2 construct: Purified human recombinant kinase full-length wildtype AKT1 was expressed in insect cells; made in house; host or cells: insect cells
Procedure, shortened: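 Insect-cell-expressed AKT1, activated in vitro by PDPK1, was used at 0.6 nM with 50 nM Ulight-CREBtide and 50 μM or 2 mM ATP in 50 mM HEPES pH 7.5, 1% DMSO, over a 10-point dose response.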

T2 sequence (P31749 whole entry): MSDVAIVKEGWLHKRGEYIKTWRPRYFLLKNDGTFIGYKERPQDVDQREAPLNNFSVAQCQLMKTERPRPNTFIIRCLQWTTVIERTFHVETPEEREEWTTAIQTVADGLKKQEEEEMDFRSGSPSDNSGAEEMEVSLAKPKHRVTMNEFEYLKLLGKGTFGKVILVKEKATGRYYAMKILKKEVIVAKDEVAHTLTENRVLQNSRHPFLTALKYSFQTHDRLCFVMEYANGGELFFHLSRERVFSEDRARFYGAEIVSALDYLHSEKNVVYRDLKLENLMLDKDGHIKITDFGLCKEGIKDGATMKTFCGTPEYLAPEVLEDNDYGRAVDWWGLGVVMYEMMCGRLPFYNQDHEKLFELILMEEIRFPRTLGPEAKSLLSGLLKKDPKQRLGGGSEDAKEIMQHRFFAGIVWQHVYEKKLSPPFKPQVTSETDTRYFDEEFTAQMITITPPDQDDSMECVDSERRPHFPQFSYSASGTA
T1 sequence (P31749 whole entry E17K): as the sequence (P31749 whole entry) above, with E17K counted along it

Structure (SMILES)	IC50 [1]	IC50 [2]
Nc1ncccc1-c1nc2ccc(OC(F)(F)F)cc2n1-c1ccc(NC(=O)c2ccc(C(=O)O)cc2)nc1 [Compound 175, 4-((5-(2-(2-aminopyridin-3-yl)-6-(trifluoromethoxy)-1H-benzo[d]imidazol-1-yl)pyridin-2-yl)carbamoyl)benzoic acid]	> 500 nM	> 500 nM
CC(C)Oc1ccc2nc(-c3cccnc3N)n(-c3ccc(NC(=O)c4ccc(C(=O)O)cc4)nc3)c2c1 [Compound 176, 4-[[5-[2-(2-amino-3-pyridyl)-6-isopropoxy-benzimidazol-1-yl]-2-pyridyl]carbamoyl]benzoic acid]	> 500 nM	> 500 nM
Cc1cc(NC(=O)c2ccc(-n3c(-c4cccnc4N)nc4ccc(-c5ccccc5)nc43)cn2)ccc1C(=O)O [Compound 177, 4-(5-(2-(2-aminopyridin-3-yl)-5-phenyl-3H-imidazo[4,5-b]pyridin-3-yl)picolinamido)-2-methylbenzoic acid]	200 to 500 nM	< 500 nM
Cc1cc(C(=O)O)ccc1NC(=O)c1ccc(-n2c(-c3cccnc3N)nc3ccc(-c4ccccc4)nc32)cn1 [Compound 178, 4-(5-(2-(2-aminopyridin-3-yl)-5-phenyl-3H-imidazo[4,5-b]pyridin-3-yl)picolinamido)-3-methylbenzoic acid]	> 500 nM	< 500 nM
Nc1ncccc1-c1nc2ccc(-c3ccccc3)nc2n1-c1ccc(C(=O)Nc2ccc(C(=O)O)cc2F)nc1 [Compound 179, 4-(5-(2-(2-aminopyridin-3-yl)-5-phenyl-3H-imidazo[4,5-b]pyridin-3-yl)picolinamido)-3-fluorobenzoic acid]	200 to 500 nM	< 500 nM
Nc1ncccc1-c1nc2ccc(-c3ccccc3)nc2n1-c1ccc(C(=O)Nc2ccc(C(=O)O)cc2F)cc1 [Compound 180, 4-(4-(2-(2-aminopyridin-3-yl)-5-phenyl-3H-imidazo[4,5-b]pyridin-3-yl)benzamido)-3-fluorobenzoic acid]	< 50 nM	< 500 nM
Cc1cc(C(=O)Nc2ccc(-n3c(-c4cccnc4N)nc4ccc(-c5ccccc5)nc43)nc2C)ccc1C(=O)O [Compound 181, 4-((6-(2-(2-aminopyridin-3-yl)-5-phenyl-3H-imidazo[4,5-b]pyridin-3-yl)-2-methylpyridin-3-yl)carbamoyl)-2-methylbenzoic acid]	> 500 nM	> 500 nM
Cc1nc(NC(=O)c2ccc(C(=O)O)cc2)ccc1-n1c(-c2cccnc2N)nc2ccc(-c3ccccc3)cc21 [Compound 182, 4-((5-(2-(2-aminopyridin-3-yl)-6-phenyl-1H-benzo[d]imidazol-1-yl)-6-methylpyridin-2-yl)carbamoyl)benzoic acid]	> 500 nM	< 500 nM
Nc1ncccc1-c1nc2ccc(-c3ccccc3)nc2n1-c1ccc(C2CN(Cc3ccc(C(=O)O)cc3)C2)cc1 [Compound 183, 4-((3-(4-(2-(2-aminopyridin-3-yl)-5-phenyl-3H-imidazo[4,5-b]pyridin-3-yl)phenyl)azetidin-1-yl)methyl)benzoic acid]	50 to 200 nM	< 500 nM
COc1cc(CN2CC(c3ccc(-n4c(-c5cccnc5N)nc5ccc(-c6ccccc6)nc54)cc3)C2)ccc1C(=O)O [Compound 184, 4-((3-(4-(2-(2-aminopyridin-3-yl)-5-phenyl-3H-imidazo[4,5-b]pyridin-3-yl)phenyl)azetidin-1-yl)methyl)-2-methoxybenzoic acid]	< 50 nM	< 500 nM
Nc1ncccc1-c1nc2ccc(-c3ccccc3)nc2n1-c1ccc(C2CN(Cc3cc(O)c(C(=O)O)c(F)c3)C2)cc1 [Compound 185, 4-((3-(4-(2-(2-aminopyridin-3-yl)-5-phenyl-3H-imidazo[4,5-b]pyridin-3-yl)phenyl)azetidin-1-yl)methyl)-2-fluoro-6-hydroxybenzoic acid]	< 50 nM	< 500 nM
